Test results: patent US10364256B2 (GlaxoSmithKline Intellectual Property Development Limited, priority 2015, dated 2019)
Counter-ions that a name gives are not always drawn. Like-named read-outs stand apart in the source and are kept apart here.

Columns and labels:
[1] = tested on: NQO1 specific enzyme activity in BEAS-2B cells (marker for NRF2 activation); test: BEAS-2B NQO1 MTT Assay; assay type: cell-based; conditions: compound incubated 48 hours, read-out: EC50 (NQO1 specific enzyme activity induction)
Method in brief: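 NQO1 specific activity induction is derived from the rate of MTT reduction (ΔOD/min, 570 nm, 30 min kinetic read) in crude lysates of BEAS-2B cells exposed to compound for 48 h. A 3-parameter fit gives EC50, reported as pEC50; part of each lysate goes to Cell Titer Glo.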

[2] = target: T1, Keap1 Kelch domain (321-609) / TAMRA-labeled 16mer NRF2 peptide (ETGE motif) (Homo sapiens, UniProt Q14145); test: NRF2-Keap1 FP Assay (Keap1 Kelch fluorescence polarization); assay type: binding; conditions: 20 nM Keap1 (321-609), 8 nM Tamra labeled peptide
T1 construct: the Kelch domain (321-609) of Keap1 is used
T1 sequence (Q14145 321-609): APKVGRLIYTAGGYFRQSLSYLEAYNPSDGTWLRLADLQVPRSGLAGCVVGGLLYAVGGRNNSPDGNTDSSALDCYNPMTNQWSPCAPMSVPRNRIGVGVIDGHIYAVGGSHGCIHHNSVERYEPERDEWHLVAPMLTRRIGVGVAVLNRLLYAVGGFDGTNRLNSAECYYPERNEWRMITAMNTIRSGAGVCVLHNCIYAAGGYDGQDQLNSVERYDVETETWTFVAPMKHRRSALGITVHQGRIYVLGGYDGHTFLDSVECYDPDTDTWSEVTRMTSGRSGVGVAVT
Method in brief: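 Compound dilutions (3-fold) were incubated 1 hr at room temperature with 20 nM Keap1 Kelch (321-609) and 8 nM TAMRA-labeled ETGE 16mer peptide. Buffer was 50 mM Tris pH 8.0, 100 mM NaCl, 5 mM MgCl2, 1 mM DTT, 2 mM CHAPS, 0.005% BSA. Fluorescence polarization (mP) was normalized to controls and fitted with a four-parameter equation to give pIC50.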

[3] = target: T2, full length Keap1 protein / full length NRF2 protein (Homo sapiens, UniProt Q14145); test: NRF2-Keap1 TR-FRET Low Protein Assay; assay type: binding; conditions: 1.25 nM Keap1 FlagHis and 2.5 nM biotin-NRF2 added
T2 construct: full length NRF2 protein and full length Keap1 protein (Keap1 exists a dimer) are used; His
T2 sequence (Q14145 whole entry): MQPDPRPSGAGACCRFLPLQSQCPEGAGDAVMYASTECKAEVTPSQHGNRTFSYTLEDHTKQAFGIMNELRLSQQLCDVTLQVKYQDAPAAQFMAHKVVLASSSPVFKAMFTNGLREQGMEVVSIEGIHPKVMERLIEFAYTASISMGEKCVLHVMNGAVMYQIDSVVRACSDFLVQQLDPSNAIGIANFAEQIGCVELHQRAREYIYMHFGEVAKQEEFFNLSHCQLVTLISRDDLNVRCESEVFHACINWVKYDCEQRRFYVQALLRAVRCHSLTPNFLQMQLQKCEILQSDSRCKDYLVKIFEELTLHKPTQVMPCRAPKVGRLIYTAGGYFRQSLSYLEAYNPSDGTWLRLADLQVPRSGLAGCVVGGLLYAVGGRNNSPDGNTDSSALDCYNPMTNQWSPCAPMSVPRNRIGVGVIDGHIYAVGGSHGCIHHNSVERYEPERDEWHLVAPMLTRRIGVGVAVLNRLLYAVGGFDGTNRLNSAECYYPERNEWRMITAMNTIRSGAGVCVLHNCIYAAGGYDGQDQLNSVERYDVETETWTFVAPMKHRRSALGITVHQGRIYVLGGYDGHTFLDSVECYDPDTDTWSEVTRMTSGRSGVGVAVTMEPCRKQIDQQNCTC
Method in brief: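 Flag-tagged full-length Keap1 was preincubated with compound (3-fold series) for 2.25 h at 37 °C in Tris pH 8.0/MgCl2/NaCl/BSA/DTT/CHAPS. Biotin-Avi-NRF2 (added at 2.5 nM) was then bound for 1.25 h at 4 °C. Eu-streptavidin/anti-Flag-APC TR-FRET (665/615 nm) was read after 1 h at RT, and pIC50 came from a four-parameter fit.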

Compound	EC50 ([1]; Homo sapiens)	IC50 [2]	IC50 [3]	EC50 ([1]; Homo sapiens, BEAS-2B, 48 h)	EC50 [1]
CC(Oc1cccc(-c2cc(O)cc(-n3ncc(C(=O)O)c3[C@H]3C[C@@H]3c3cn(C)nn3)c2)c1)C1CCCCC1 (mixture of isomers) [Example 194]	100 to 1000 nM	100 to 1000 nM	10 to 100 nM		
CC(Oc1cccc(-c2cccc(-n3ncc(C(=O)O)c3[C@H]3C[C@@H]3c3cn(C(C)C)nn3)c2)c1)C1CCCCC1 (mixture of isomers) [Example 195, 1-(3′-(1-cyclohexylethoxy)-[1,1′-biphenyl]-3-yl)-5-((1,2-trans)-2-(1-isopropyl-1H-1,2,3-triazol-4-yl)cyclopropyl)-1H-pyrazole-4-carboxylic acid]	10 to 100 nM	100 to 1000 nM	10 to 100 nM		
CCC[C@@H]1CCCCN1C(=O)c1cccc(-c2cccc(-n3ncc(C(=O)O)c3[C@H]3C[C@@H]3c3cn(C(C)C)nn3)c2)c1 (racemic) [Example 200]		10 to 100 nM	< 10 nM	100 to 1000 nM	
CC(Oc1ccc(-c2cccc(-n3ncc(C(=O)O)c3[C@H]3C[C@@H]3c3cn(C)nn3)c2)cc1)C1CCCCC1 (mixture of isomers) [Example 241, 1-(4′-(1-Cyclohexylethoxy)-[1,1′-biphenyl]-3-yl)-5-((1,2-trans)-2-(1-methyl-1H-1,2,3-triazol-4-yl)cyclopropyl)-1H-pyrazole-4-carboxylic Acid]	1000 to 10000 nM	> 10000 nM	> 100000 nM		
CCC(Oc1cccc(-c2cccc(-n3ncc(C(=O)O)c3[C@H]3C[C@@H]3c3cn(C)nn3)c2)c1)C1CCCCC1 (mixture of isomers) [Example 242]	10 to 100 nM	10 to 100 nM	10 to 100 nM		
Cn1cc([C@@H]2C[C@H]2c2c(C(=O)O)cnn2-c2cccc(-c3cccc(CN4CCOc5ccccc5C4)c3)c2)nn1 (racemic) [Example 256, 1-(3′-((2,3-Dihydrobenzo[f][1,4]oxazepin-4(5H)-yl)methyl)-[1,1′-biphenyl]-3-yl)-5-(trans-2-(1-methyl-1H-1,2,3-triazol-4-yl)cyclopropyl)-1H-pyrazole-4-carboxylic Acid]	1000 to 10000 nM	10 to 100 nM	10 to 100 nM		
CC(Cc1cccc(-c2cccc(-n3ncc(C(=O)O)c3[C@@H]3C[C@H]3c3cn(C)nn3)c2)c1)C1CCCCC1 (single isomer, unassigned) [Example 116e, 1-(3′-((R) or (S)-2-Cyclohexylpropyl)-[1,1′-biphenyl]-3-yl)-5-((1R,2R)-2-(1-methyl-1H-1,2,3-triazol-4-yl)cyclopropyl)-1H-pyrazole-4-carboxylic Acid]	1 to 10 nM	10 to 100 nM	10 to 100 nM		
CC[C@H]1c2ccccc2OCCN1Cc1cccc(-c2cccc(-n3ncc(C(=O)O)c3[C@@H]3C[C@H]3c3cn(C)nn3)c2)c1 (single isomer, unassigned; isomer 1) [Example 122]		10 to 100 nM	< 10 nM		10 to 100 nM
CC[C@H]1c2ccccc2OC(C)(C)CN1Cc1cccc(-c2cccc(-n3ncc(C(=O)O)c3[C@@H]3C[C@H]3c3cn(C)nn3)c2)c1 (single isomer, unassigned; isomer 1) [Example 124]	10 to 100 nM	10 to 100 nM	< 10 nM		
C[C@H]1Cc2ccc(Br)cc2S(=O)(=O)N(Cc2cccc(-c3cccc(-n4ncc(C(=O)O)c4[C@@H]4C[C@H]4c4cn(C)nn4)c3)c2)C1 (single isomer, unassigned; isomer 1) [Example 134]	100 to 1000 nM	10 to 100 nM	< 10 nM		
CC[C@H]1c2ccccc2OCCN1Cc1cccc(-c2cccc(-n3ncc(C(=O)O)c3[C@@H]3C[C@H]3c3cn(C)nn3)c2)c1 (single isomer, unassigned; isomer 2) [Example 121]	10 to 100 nM	1 to 10 nM	< 10 nM		
CC[C@@H]1c2ccccc2OC(C)(C)CN1Cc1cccc(-c2cccc(-n3ncc(C(=O)O)c3[C@@H]3C[C@H]3c3cn(C)nn3)c2)c1 (single isomer, unassigned; isomer 2) [Example 125]	1 to 10 nM	10 to 100 nM	< 10 nM		
C[C@@H]1Cc2ccc(Br)cc2S(=O)(=O)N(Cc2cccc(-c3cccc(-n4ncc(C(=O)O)c4[C@@H]4C[C@H]4c4cn(C)nn4)c3)c2)C1 (single isomer, unassigned; isomer 2) [Example 135]	10 to 100 nM	10 to 100 nM	10 to 100 nM		
C[C@H](Oc1cccc(-c2cccc(-n3ncc(C(=O)O)c3[C@@H]3C[C@H]3c3cn(C)nn3)c2)c1)C1CCCCC1 [Example 64, 1-(3′-((S)-1-Cyclohexylethoxy)-[1,1′-biphenyl]-3-yl)-5-((1R,2R)-2-(1-methyl-1H-1,2,3-triazol-4-yl)cyclopropyl)-1H-pyrazole-4-carboxylic Acid]		10 to 100 nM	< 10 nM	10 to 100 nM	
CC[C@@H]1CN(Cc2cccc(-c3cccc(-n4ncc(C(=O)O)c4[C@@H]4C[C@H]4c4cn(C)nn4)c3)c2)Cc2ccccc2O1 [Example 65, 1-(3′-(((R)-2-Ethyl-2,3-dihydrobenzo[f][1,4]oxazepin-4(5H)-yl)methyl)-[1,1′-biphenyl]-3-yl)-5-((1R,2R)-2-(1-methyl-1H-1,2,3-triazol-4-yl)cyclopropyl)-1H-pyrazole-4-carboxylic Acid]	100 to 1000 nM	10 to 100 nM	< 10 nM		
C[C@H](Oc1cccc(-c2cccc(-n3ncc(C(=O)O)c3[C@@H]3C[C@H]3c3cn(C)nn3)c2)c1)C1CCCCC1 [Example 68, 1-(3′-((S)-1-Cyclohexylethoxy)-[1,1′-biphenyl]-3-yl)-5-((1R,2R)-2-(1-methyl-1H-1,2,3-triazol-4-yl)cyclopropyl)-1H-pyrazole-4-carboxylate, Sodium salt]		10 to 100 nM	< 10 nM	1 to 10 nM	
C[C@H](Oc1cccc(-c2cccc(-n3ncc(C(=O)O)c3[C@@H]3C[C@H]3c3cn(C)nn3)c2)c1)C1CCCCC1 [Example 69, Barium 1-(3′-((S)-1-Cyclohexylethoxy)-[1,1′-biphenyl]-3-yl)-5-((1R,2R)-2-(1-methyl-1H-1,2,3-triazol-4-yl)cyclopropyl)-1H-pyrazole-4-carboxylate Hydroxide]		1 to 10 nM	< 10 nM		< 1 nM
C[C@H](Oc1cccc(-c2cccc(-n3ncc(C(=O)O)c3[C@@H]3C[C@H]3c3cn(C)nn3)c2)c1)C1CCCCC1 [Example 70, Calcium 1-(3′-((S)-1-Cyclohexylethoxy)-[1,1′-biphenyl]-3-yl)-5-((1R,2R)-2-(1-methyl-1H-1,2,3-triazol-4-yl)cyclopropyl)-1H-pyrazole-4-carboxylate Hydroxide]	< 1 nM	10 to 100 nM	< 10 nM		
C[C@H](Oc1cccc(-c2cccc(-n3ncc(C(=O)O)c3[C@@H]3C[C@H]3c3cn(C)nn3)c2)c1)C1CCCCCC1 [Example 73, 1-(3′-((S)-1-Cycloheptylethoxy)-[1,1′-biphenyl]-3-yl)-5-((1R,2R)-2-(1-methyl-1H-1,2,3-triazol-4-yl)cyclopropyl)-1H-pyrazole-4-carboxylic Acid]	1 to 10 nM	10 to 100 nM	< 10 nM		
C[C@@H](Oc1cccc(-c2cccc(-n3ncc(C(=O)O)c3[C@@H]3C[C@H]3c3cn(C)nn3)c2)c1)C1CCCCCC1 [Example 74, 1-(3′-((R)-1-Cycloheptylethoxy)-[1,1′-biphenyl]-3-yl)-5-((1R,2R)-2-(1-methyl-1H-1,2,3-triazol-4-yl)cyclopropyl)-1H-pyrazole-4-carboxylic Acid]	10 to 100 nM	10 to 100 nM	10 to 100 nM		
C[C@H](Oc1cccc(-c2cccc(-n3ncc(C(=O)O)c3[C@@H]3C[C@H]3c3cn(C4CCOCC4)nn3)c2)c1)C1CCCCC1 [Example 95, 1-(3′-((S)-1-Cyclohexylethoxy)-[1,1′-biphenyl]-3-yl)-5-((1R,2R)-2-(1-(tetrahydro-2H-pyran-4-yl)-1H-1,2,3-triazol-4-yl)cyclopropyl)-1H-pyrazole-4-carboxylic Acid]	1 to 10 nM	10 to 100 nM	< 10 nM		
C[C@H](Oc1cccc(-c2cccc(-n3ncc(C(=O)O)c3[C@H]3C[C@@H]3c3cn(C4CCOCC4)nn3)c2)c1)C1CCCCC1 [Example 96]	100 to 1000 nM	1000 to 10000 nM	100 to 1000 nM		
C[C@H](Oc1cccc(-c2cccc(-n3ncc(C(=O)O)c3[C@@H]3C[C@H]3c3cn(CC(F)(F)F)nn3)c2)c1)C1CCCCC1 [Example 97, 1-(3′-((S)-1-Cyclohexylethoxy)-[1,1′-biphenyl]-3-yl)-5-((1R,2R)-2-(1-(2,2,2-trifluoroethyl)-1H-1,2,3-triazol-4-yl)cyclopropyl)-1H-pyrazole-4-carboxylic acid]	1 to 10 nM	10 to 100 nM	10 to 100 nM		
